Laboratory results taken from patent US6455593B1, “Method of dynamic retardation of cell cycle kinetics to potentiate cell damage” (priority 1995, dated 2002).
pIC50: −log10 of the molar value.

Key:
U937 cells [1] = assay: Flow cytometric cell cycle analysis (propidium iodide); format: cell-based, human
Procedure: Flow cytometric analyses were performed with a Coulter Epics System (purchased from Coulter Corp, Hialeah, Fla.). Cells were disrupted in buffer with 0.1% Triton-X 100 (or 0.6 % NP-40), so that the nuclei could be stained with 0.05% propidium iodide (PI). See Shapiro N M, Practical Flow Cytometry, Man R Liss, NY (1988); Nicoletti I et al., J Immunol Methods 139:271-9 (1991). Analyses of 10,000 nuclei were performed with graduated concentrations of dThd at serial time points. Histograms of PI fluorescent emissions at 675±10 nm were used to discriminate cell cycle fractions of the target population. The proportion of cells in each phase of the cell cycle is represented by stack bars above the X-axis as a fraction of those cells with intact DNA structure. The fraction of cells with depleted DNA in each sample is represented below the X-axis as a percentage of the total cell number. Cells with depleted DNA are presumed apoptotic. Crompton S T et. al. Biophys. Biochem. Res. Comm. 183:532-537 (1992). Each stack bar in FIG. 5 represents the cell cycle distribution of a population sample of >10,000 cells, analyzed for each indicated dThd concentration at indicated treatment times.
Flow cytometric analyses were performed as in Example 2. The results are shown in plot A of FIG. 5 from Example 2.
The U937 cells were exposed to a range of concentrations below the IC40 and sampled for flow cytometry at intervals of 8, 16, and 24 hours. Flow cytometric analysis was performed as described in Example 2.

[2] = system: human promonocytic lymphoma cells (U937); assay: Microculture indicator system (MIS), MTT growth inhibition assay with bivariate serial dilutions; format: cell-based
Procedure: Microcultures of human promonocytic lymphoma cells (U937) (“the U937 cells”) originally obtained from the American Type Culture Collection (CRL 1593) and later grown by Dr. K. Zoon at the FDA in Bethesda, Md. were set up in a multiwell plate with serial two-fold dilutions of dThd in tissue culture growth medium (RPMI 1640 plus 10% Nurserum and antibiotics). The volume of medium per well was 100 μl and the cell number per well was about 1×10^5. The plate was incubated at 37° C. for 24 hr.
A dye, 3-[4,5-dimethylthiazol-2-yl]-2,5-diphenyl-tetrazolium bromide (MTT), was used as a chromogenic indicator of the metabolically active cell mass. Viable cells metabolize the dye and accumulate a reduced formazan product (blue color) which is solubilized for colorimetry. Mossman T, J. Immunol. Methods 5:55-63 (1983); Li L and Lau B H S, In Vitro Cell Dev. Biol. 29A:531-536 (1993). The MTT assay has been established as useful for measuring either growth inhibition or population killing. Plowman, supra. The MTT method is ideal for cells tested in suspension growth, and can also be used for some cells growing in monolayers. […] Alley, supra; Hofs, supra; Wilson J K et al., Br. J. Cancer 62:189-94 (1990); Plowman, supra.
Thirty μl of 0.5% MTT in phosphate buffered saline was added to each microculture well at the appropriate time. After incubation at 37° C. for 3 hr, 120 μl of an aqueous solution of 10 % SDS with 0.01 N HCl was added to release and dissolve formazan product. This was accomplished by overnight incubation of the plate at 37° C. After careful mixing of the microwell contents by placing the plates on an orbital shaker for 5 minutes the absorbencies were quantitated by spectrophotometry at 570 nm with a Ceres UV 900 HDI microwell plate reader (from Biotek Instruments Inc, Winooski, Vt. 05404-0998). Absorbance data was normalized to a blank well containing all reagents without cells and was collected semi-automatically.
Flat-bottom 96-well plates of tissue culture quality (Corning or Costar) were set up with two-fold serial dilutions of each agent to be tested, e.g., the RA and TCI, using a multichannel pipettor with adjustable volume, e.g., Costar or Rainin, to perform serial mixing. This set-up is diagrammed in FIG. 12. […] In each plate, a total of 59 wells then contained bivariate agent combinations, the bivariate serial dilutions.
Agents were serially diluted by serial mixing in two separate plates or series of wells, and then were combined prior to addition of a fixed volume and density of the U937 cells in a suspension calculated to deliver about 1×10^5 cells per well.
Cells were added after serial dilutions of the dThd had been dispensed. Cells were dispensed at about 10×10^4 cells per microwell to provide optimal sensitivity of detection of cell damage in subsequent calorimetric assays. […] The final volume of medium was 100 μl/well. The plates were further incubated at 37° C. for a total duration of 18-24 h. The dye MTT was used as a chromogenic indicator of the residual and metabolically active cell mass. (Described in Example 1).
In this MTT assay, normalized absorbance data was collected semi-automatically from each microculture well with a Ceres UV 900 HD1 plate reader, from Biotek Instruments Inc., Winooski, V T 05404-0998, stored in an EIA file under the Ceres 900 program, transferred in comma delimited format to a floppy diskette, and imported into a spread sheet program (Borland Quattro Pro) for data manipulations.

p. falciparum W2 = assay: Parasite growth by 3H-hypoxanthine uptake in infected erythrocytes; format: cell-based; details: Plasmodium falciparum, W2, Erythrocyte; 24 hr after RBC infection, 3H-hypoxanthine uptake; read-out: inhibitory concentrations (IC50), strain W2
[3] = system: Burkitt's lymphoma cell line Raji; assay: MIS MTT growth inhibition assay; format: cell-based, human; details: total 24 Hours
[4] = after oral ingestion; cited from earlier work
p. falciparum D6 = assay: Parasite growth by 3H-hypoxanthine uptake in infected erythrocytes; format: cell-based; details: Plasmodium falciparum, D6, Erythrocyte; 24 hr after RBC infection, 3H-hypoxanthine uptake; read-out: inhibitory concentrations (IC50), strain D6
U937 cells [5] = assay: DNA gel electrophoresis for DNA fragmentation (apoptosis); format: cell-based, human
Procedure: Samples of the U937 cells were exposed to a series of concentrations of dThd for 24 hr. Their DNA was isolated by lysis of cell samples in TE buffer containing TRIS 10 mM, EDTA 10 mM, SDS 0.5% and proteinase K 200 μg/ml at […] for 2 h. The proteins were precipitated in a IM solution of NaCl and centrifuged at 2,500×g for 30 min at […] DNAse free RNase (25 μg/ml) was added to the supernatant and incubated for 30 min at 37° C. Spectrophotometric quantitation of the DNA in the supernatant was quantitated by absorbance spectrophotometry at 260 nm. Volumes adjusted to contain equal amounts of DNA were mixed with a loading buffer of 40% (w/v) sucrose, 0.1M EDTA pH 8.0, 0.5% (w/v) sodium lauryl sulphate and 0.05% (w/v) bromophenol blue. […] Separated bands of DNA were stained with ethidium bromide and photographed in UV light (Fotodyne Inc.). […] The lowest molecular weight (about 180 bp) was determined with a standard 123 bp ladder from Sigma Chemical Co. (Cat. #D5042). The result shown is a classical “DNA ladder,” characteristic of the fragmentation of DNA macromolecules in apoptosis. See Tomei, supra; Obeid, supra; Gold, supra.

[6] = Homo sapiens, U-937, 4 h, U937, HU […] 4 H, K252a 0, read-out: MTT % inhibition, HU only

With `O=c1[nH]c(=O)n([C@H]2C[C@H](O)[C@@H](CO)O2)cc1Br` [BrdU, bromodeoxyuridine] the “Effect on S phase” value (U937 cells [1]; bivariate flow cytometry, PI and fluorescein-labelled antibody to BrdU) was “produced a slowing of S phase similar to that caused by dThd”, the “RA concentration for STSP potentiation relative to concentration causing cell cycle arrest” value ([2]; U937) was “at least one log lower” and the “Growth inhibition (MTT), BrdU 0.01 mM (ninth dilution)” value ([2]; U937, BrdU 0.01 mM (c19) for 4 H, STSP for 18 H, total 22 H, STSP nM rows r7-r12: 200,100,60,26,12.6,6.25, r14 BrdU alone) was 4%. For the same molecule, the “Growth inhibition (MTT), BrdU 0.01 mM (tenth, last dilution)” value ([2]; U937, BrdU 0.01 mM (c21, last dilution) for 4 H, STSP for 18 H, total 22 H, STSP nM rows r7-r12: 200,100,60,26,12.6,6.25, r14 BrdU alone) was 4%, the “Combined results ratio (CRR), BrdU 0.02 mM” value ([2]; U937, BrdU 0.02 mM for 4 H, STSP for 18 H, total 22 H, STSP nM rows r7-r12: 200,100,60,26,12.6,6.25, r13 BrdU alone) was 1.0 and the “Growth inhibition (MTT), BrdU 0.02 mM” value ([2]; U937, BrdU 0.02 mM for 4 H, STSP for 18 H, total 22 H, STSP nM rows r7-r12: 200,100,60,26,12.6,6.25, r14 BrdU alone) was 5%. For the same molecule, the “Combined results ratio (CRR), BrdU 0.06 mM” value ([2]; U937, BrdU 0.06 mM for 4 H, STSP for 18 H, total 22 H, STSP nM rows r7-r12: 200,100,60,26,12.6,6.25, r13 BrdU alone) was 1.0, the “Growth inhibition (MTT), BrdU 0.06 mM” value ([2]; U937, BrdU 0.06 mM for 4 H, STSP for 18 H, total 22 H, STSP nM rows r7-r12: 200,100,60,26,12.6,6.25, r14 BrdU alone) was 10% and the “Combined results ratio (CRR), BrdU 0.09 mM” value ([2]; U937, BrdU 0.09 mM for 4 H, STSP for 18 H, total 22 H, STSP nM rows r7-r12: 200,100,60,26,12.6,6.25, r13 BrdU alone) was 1.0. The “Growth inhibition (MTT), BrdU 0.09 mM” value ([2]; U937, BrdU 0.09 mM for 4 H, STSP for 18 H, total 22 H, STSP nM rows r7-r12: 200,100,60,26,12.6,6.25, r14 BrdU alone) was 21%, the “Combined results ratio (CRR), BrdU 3.00 mM” value ([2]; U937, BrdU 3.00 mM for 4 H, STSP for 18 H, total 22 H, STSP nM rows r7-r12: 200,100,60,26,12.6,6.25, r13 BrdU alone) was 1.0 and the “Growth inhibition (MTT), BrdU 3.00 mM” value ([2]; U937, BrdU 3.00 mM for 4 H, STSP for 18 H, total 22 H, STSP nM rows r7-r12: 200,100,60,26,12.6,6.25, r14 BrdU alone) was 61%. For the same molecule, the “Combined results ratio (CRR), BrdU […]” value ([2]; U937, BrdU […] for 4 H, STSP for 18 H, total 22 H, STSP nM rows r7-r12: 200,100,60,26,12.6,6.25, r13 BrdU alone) was 1.0.
For `NC(=O)NO` [HU, hydroxyurea], the “Cells that became DNA depleted” value (U937 cells [1]; 0.125-1 mM HU, up to 16 hr, U937) was “no more than 20%”, the “Cells with depleted DNA” value (U937 cells [1]; HU>1 mM (2 mM at 24 hr), U937) was “a major increase in cells with depleted DNA became evident” and the pIC50 (p. falciparum W2) was 3.66. The “Growth Inhibition” value ([3]; HU only 0.00 mM) was −3%, the “Growth Inhibition” value ([3]; HU only 0.01 mM) was −0% and the “Growth Inhibition” value ([3]; HU only 0.02 mM) was −7%. For the same molecule, the “Growth Inhibition” value ([3]; HU only 0.03 mM) was −7%, the “Growth Inhibition” value ([3]; HU only 0.05 mM) was −7% and the “Growth Inhibition” value ([3]; HU only 0.50 mM) was 0%. For the same molecule, the “Growth Inhibition” value ([3]; HU only 1.00 mM) was 0%, the “Growth Inhibition” value ([3]; HU only 2.00 mM) was 17% and the “Time of blood level peak” value [4] was 2 to 4 h. It also gave an inhibition at 10 µM ([2]; Homo sapiens, U-937, 4 h, U937, HU 0.01 mM 4 H, K252a 0, read-out: MTT % inhibition, HU only) of -1%, an inhibition at 20 µM ([2]; Homo sapiens, U-937, 4 h, U937, HU 0.02 mM 4 H, K252a 0, read-out: MTT % inhibition, HU only) of -1% and an inhibition at 30 µM ([2]; Homo sapiens, U-937, 4 h, U937, HU 0.03 mM 4 H, K252a 0, read-out: MTT % inhibition, HU only) of 1%. It also gave an inhibition at 60 µM ([2]; Homo sapiens, U-937, 4 h, U937, HU 0.06 mM 4 H, K252a 0, read-out: MTT % inhibition, HU only) of 9%, an inhibition at 500 µM ([2]; Homo sapiens, U-937, 4 h, U937, HU 0.50 mM 4 H, K252a 0, read-out: MTT % inhibition, HU only) of 48% and an inhibition at 1000 µM ([2]; Homo sapiens, U-937, 4 h, U937, HU 1.00 mM 4 H, K252a 0, read-out: MTT % inhibition, HU only) of 52%. For the same molecule, the inhibition at 2000 µM ([2]; Homo sapiens, U-937, 4 h, U937, HU 2.00 mM 4 H, K252a 0, read-out: MTT % inhibition, HU only) was 59%, the inhibition at 130 µM [2, 6] was 20% and the inhibition at 250 µM [2, 6] was 36%. For the same molecule, the “Enhancement of DEET-induced apoptosis as prospective RA” value ([2]; MTT tests, about 0.05 to 3 mM, preliminary results) was “no significant enhancement of the DEET-induced apoptosis”, the “MTT % inhibition, HU only” value ([2]; U937, HU 0.00 mM (so in the source) 4 H, K252a 0) was −2% and the pIC50 (p. falciparum D6) was 3.76.
With `CCCCCCCCCCCCCC(=O)O[C@@H]1[C@@H](C)[C@@]2(O)[C@@H](C=C(CO)C[C@]3(O)C(=O)C(C)=C[C@@H]23)[C@H]2C(C)(C)[C@]12OC(C)=O` [TPA, 12-0-tetradecanoyl-phorbol-13-acetate] the “Effect on dThd potentiation of STSP DNA fragmentation” value (U937 cells [5]; 10 nM TPA 48 hours differentiation, then dThd […], STSP 25 nM 7 hours) was “significantly reduced dThd potentiation of DNA fragmentation during STSP treatment”.
For `Nc1ccn([C@H]2C[C@H](O)[C@@H](CO)O2)c(=O)n1` [dCyt, deoxycytidine], the “Effect on DNA fragmentation by dThd and STSP” value (U937 cells [5]; dCyt added to U937 cultures treated with dThd and STSP) was “decreased DNA fragmentation”.
In the case of bleomycin, the “Combined results ratio, bleomycin only” value ([2]; MTT #523, total 20 Hours, bleomycin 16 Hours, no STSP, bleomycin mU by row: r9 160, r10 80, r11 40, r12 20, r13 10, r14 5) was 1.0.
